Drawing on PMC7771325 (Journal of medicinal chemistry, 2020), this text covers aqueous solubility for one compound.

This data set can be described thus: Aqueous solubility. It is filed as physicochemical. Conditions: resisted cocrystallization attempts.

On to `Cn1cc(-c2[nH]c3cc(NC(=O)[C@H](N)C4CCCCC4)cc4c3c2C=NNC4=O)cn1` [PF-477736], for which the aqueous solubility entry was “low aqueous solubility”.
